We go through ten compounds from patent US11723908B2, “Quinazoline derivatives as antitumor agents” (SUZHOU ZANRONG PHARMA LIMITED, priority 2018, dated 2023).

SMILES strings stand for the structures.

Sequence of HER2 (P04626 23-1255): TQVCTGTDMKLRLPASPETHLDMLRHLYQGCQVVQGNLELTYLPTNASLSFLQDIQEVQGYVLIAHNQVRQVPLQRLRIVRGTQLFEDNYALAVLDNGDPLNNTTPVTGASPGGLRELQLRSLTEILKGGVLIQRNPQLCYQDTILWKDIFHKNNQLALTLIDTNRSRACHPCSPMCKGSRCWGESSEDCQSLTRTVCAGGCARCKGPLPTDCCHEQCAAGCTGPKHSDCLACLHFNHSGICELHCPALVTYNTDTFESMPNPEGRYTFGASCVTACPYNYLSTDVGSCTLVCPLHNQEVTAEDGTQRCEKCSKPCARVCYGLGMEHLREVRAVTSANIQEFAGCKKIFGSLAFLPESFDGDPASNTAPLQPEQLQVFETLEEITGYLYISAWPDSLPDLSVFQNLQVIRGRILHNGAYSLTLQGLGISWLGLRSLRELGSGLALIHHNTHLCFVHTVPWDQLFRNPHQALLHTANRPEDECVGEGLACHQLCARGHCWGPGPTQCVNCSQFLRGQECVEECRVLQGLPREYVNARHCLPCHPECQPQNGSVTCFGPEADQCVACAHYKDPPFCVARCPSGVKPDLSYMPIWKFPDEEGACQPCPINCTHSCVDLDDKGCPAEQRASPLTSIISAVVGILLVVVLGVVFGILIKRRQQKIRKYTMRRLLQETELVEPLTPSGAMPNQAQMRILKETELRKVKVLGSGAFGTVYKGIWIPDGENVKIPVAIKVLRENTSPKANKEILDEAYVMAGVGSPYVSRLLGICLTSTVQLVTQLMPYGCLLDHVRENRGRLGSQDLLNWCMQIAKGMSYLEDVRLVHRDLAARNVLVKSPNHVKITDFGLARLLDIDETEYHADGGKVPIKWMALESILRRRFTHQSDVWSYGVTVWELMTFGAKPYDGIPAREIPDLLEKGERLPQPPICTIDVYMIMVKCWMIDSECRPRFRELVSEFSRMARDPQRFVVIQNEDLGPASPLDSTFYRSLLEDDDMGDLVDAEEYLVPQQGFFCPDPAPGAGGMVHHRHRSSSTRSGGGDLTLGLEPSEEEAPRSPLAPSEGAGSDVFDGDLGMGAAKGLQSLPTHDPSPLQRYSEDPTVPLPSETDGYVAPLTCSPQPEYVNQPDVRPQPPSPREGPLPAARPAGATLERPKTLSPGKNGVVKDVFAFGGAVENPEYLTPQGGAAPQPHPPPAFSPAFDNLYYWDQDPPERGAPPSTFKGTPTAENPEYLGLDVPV

This assay concerns the target HER2 (Homo sapiens (Human), UniProt P04626). In words: BT474 cellular assay (HER2 inhibition), phospho-HER2 ELISA. In kind it is cell-based. The settings on record: inhibition of phosphor HER2, BT474 cells, 2 hours compound incubation. The procedure:
Assay a) BT474 Cellular Assay (HER2 Inhibition) Inhibition of phosphor HER2 was determined by enzyme-linked immunosorbent assay (ELISA) in BT474 cells. BT474 cell line was purchased from [NT] number HTB-20). Human Phospho-ErbB2 ELISA kit was purchased from R&D systems (catalog number DYC1768). Day 1: When the cells reach 70-90% confluence, cells were trypsinized and re-suspended. 5000 cells per well were seeded to a 384-well plate. The plate was incubated at 37° C. with 5% CO2 for 24 hours. ELISA plate was coated with 2 μg/ml capture antibody, which was incubated at 4° C. overnight. Day 2: 25 nl compounds was dosed by Echo from source plate and the 384-well plate was incubated at 37° C. for 2 hours. 30 μl lysis buffer was added to each well and the 384-well plate was shaken softly at 4° C. for 30 minutes. The ELISA plate was washed, blocked and incubated at room temperature for 1-2 hours. The blocked ELISA plate was washed and 20 μl cell lysate was transferred from the 384-well plate to the ELISA plate, which was incubated overnight at 4° C. Day 3: The ELISA plate was washed 3 times. 25 μl/well detection antibody was added (diluted 1 by 2000 in 1% BSA in PBS). After 2 hours of incubation with detection antibody, the ELISA plate was washed 3 times, 25 μl/well TMB substrate was added and incubated for 10-15 minutes before stop solution was added. Absorbance at 450 nm and 570 nm was read within 30 minutes after adding the stop solution. […] The IC50 results are provided in Table 1 for some exemplary compounds.
In general terms: An ELISA detects its analyte on a solid surface through an enzyme-linked reagent.
For orientation: IC50 means the point on the concentration scale where inhibition reaches its midpoint. A high value points to a need for much substance. As to `COc1ccc2ncnc(Nc3ccc(Oc4cc5ncnn5cn4)c(C)c3)c2c1N1CC[C@@H](N(C)C)C1` [Example 2, (R)—N-(4-([1,2,4]-triazolo[1,5-c]pyrimidin-7-yloxy)-3-methylphenyl)-5-(3-(dimethylamino)pyrrolidin-1-yl)-6-methoxyquinazolin-4-amine], the IC50 amounted to 27 nM.
In the case of `Cc1cc(Nc2ncnc3ccc(OC(F)F)c(O[C@H]4CCN(C)CC4(F)F)c23)ccc1Oc1cc2ncnn2cn1` [Example 18, (S)—N-(4-([1,2,4]triazolo[1,5-c]pyrimidin-7-yloxy)-3-methylphenyl)-5-((3,3-difluoro-1-methylpiperidin-4-yl)oxy)-6-(difluoromethoxy)quinazolin-4-amine] it was 48 nM; in that of `[2H]C([2H])([2H])Oc1ccc2ncnc(Nc3ccc(Oc4cc5ncnn5cn4)c(C)c3)c2c1O[C@@H]1CCN(C([2H])([2H])[2H])CC1(F)F` [Example 77, (R)—N-(4-([1,2,4]triazolo[1,5-c]pyrimidin-7-yloxy)-3-methylphenyl)-5-((3,3-difluoro-1-(methyl-d3)piperidin-4-yl)oxy)-6-(methoxy-d3)quinazolin-4-amine], 14 nM.
With `Cc1cc(Nc2ncnc3ccc(OC(F)F)c(O[C@@H]4CCN(C)CC4(F)F)c23)ccc1Oc1cc2ncnn2cn1` [Example 17, (R)—N-(4-([1,2,4]triazolo[1,5-c]pyrimidin-7-yloxy)-3-methylphenyl)-5-((3,3-difluoro-1-methylpiperidin-4-yl)oxy)-6-(difluoromethoxy)quinazolin-4-amine] the figure was 35 nM.
In the case of `Cc1cc(Nc2ncnc3ccc(NC(=O)/C=C/CN(C)C)c(O[C@@H]4CCN(C)CC4(F)F)c23)ccc1Oc1cc2ncnn2cn1` [Example 92, (R,E)-N-(4-((4-([1,2,4]triazolo[1,5-c]pyrimidin-7-yloxy)-3-methylphenyl)amino)-5-((3,3-difluoro-1-methylpiperidin-4-yl)oxy)quinazolin-6-yl)-4-(dimethylamino)but-2-enamide] it was 267 nM; in that of `COc1cc2ncnc(Nc3ccc(Oc4cc5ncnn5cn4)c(C)c3)c2c(O[C@@H]2CCN(C)CC2(F)F)c1OC` [Example 99, (R)—N-(4-([1,2,4]triazolo[1,5-c]pyrimidin-7-yloxy)-3-methylphenyl)-5-((3,3-difluoro-1-methylpiperidin-4-yl)oxy)-6,7-dimethoxyquinazolin-4-amine], 170 nM.
As for `Cc1cc(Nc2ncnc3ccc(OC(C)C)c(O[C@@H]4CCN(C)CC4(F)F)c23)ccc1Oc1cc2ncnn2cn1` [Example 29, (R)—N-(4-([1,2,4]triazolo[1,5-c]pyrimidin-7-yloxy)-3-methylphenyl)-5-((3,3-difluoro-1-methylpiperidin-4-yl)oxy)-6-isopropoxyquinazolin-4-amine], the IC50 amounted to 9.3 nM.
In the case of `COc1ccc2ncnc(Nc3ccc(Oc4cc5ncnn5cn4)c(C)c3)c2c1OC1CCNCC1(F)F` (stereo not shown) [Example 76, N-(4-([1,2,4]triazolo[1,5-c]pyrimidin-7-yloxy)-3-methylphenyl)-5-((3,3-difluoropiperidin-4-yl)oxy)-6-methoxyquinazolin-4-amine] it was 11 nM; in that of `Cc1cc(Nc2ncnc3ccc(O[C@H]4CCOC4)c(O[C@@H]4CCN(C)CC4(F)F)c23)ccc1Oc1cc2ncnn2cn1` [Example 21, N-(4-([1,2,4]triazolo[1,5-c]pyrimidin-7-yloxy)-3-methylphenyl)-5-(((R)-3,3-difluoro-1-methylpiperidin-4-yl)oxy)-6-(((S)-tetrahydrofuran-3-yl)oxy)quinazolin-4-amine], 15 nM.
In the case of `COc1ccc2ncnc(Nc3ccc(Oc4cc5ncnn5cn4)c(C)c3)c2c1O[C@@H]1CCN(C(C)C)CC1(F)F` [Example 78, (R)-N-(4-([1,2,4]triazolo[1,5-c]pyrimidin-7-yloxy)-3-methylphenyl)-5-((3,3-difluoro-1-isopropylpiperidin-4-yl)oxy)-6-methoxyquinazolin-4-amine] it was 11 nM.
